Measurements: publication PMC6694196, “Intrinsic tryptophan fluorescence spectroscopy reliably determines galectin-ligand interactions” (Scientific Reports, 2019)
Several values for one entry are separate records, joined by “and”; a condition that tells them apart may be missing. Equal values may be shown once. Entries after “also recorded” stand apart in the source; their conditions may differ.

Assays:
[1] = target: T1, galectin-4C (residues 153–323) (Homo sapiens, UniProt P56470); experiment: TFS of galectin-4C-ligand interaction; assay type: binding; details: galectin-4C 5 µM, PBS, 25 °C
T1 construct: His-tag (pET47b, HRV3C-cleavable) (cleaved yes); made in house; host or cells: E. coli BL21(DE3)
T1 sequence (P56470 153-323): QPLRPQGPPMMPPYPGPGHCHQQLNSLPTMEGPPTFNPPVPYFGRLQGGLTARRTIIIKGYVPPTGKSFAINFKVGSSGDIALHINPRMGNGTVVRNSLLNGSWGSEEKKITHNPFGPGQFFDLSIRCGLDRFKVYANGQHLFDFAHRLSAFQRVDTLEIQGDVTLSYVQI
Method: (§1) All tryptophan fluorescence spectroscopy experiments were performed using CARY Eclipse Fluorescence Spectrophotometer (Varian Inc. Santa Clara, California, USA) and a 3 ml quartz cuvette. […] The temperature was maintained constant at 25 °C by an external thermostatic water circulator. To measure galectin-ligand interactions, recombinant galectin-2 at 20 µM, galectin-3 at 10 µM and galectin-4, -4N and -4C at 5 µM were allowed to equilibrate in PBS for 10–30 minutes under constant stirring before being titrated with testing carbohydrate ligand solutions. […] Control buffer titrations to galectin solutions were performed in parallel for background determination in each experiment. Data from three independent experiments were analysed using nonlinear regression with ‘One Site- Specific Binding’ model (Y = Bmax * X/(KD + X) where X is the ligand concentration, Y is the fluorescence intensity, Bmax is the maximum specific binding and KD is the equilibrium binding constant) in GraphPad Prism 7.04.

galectin-3 [2] = target: T2, galectin-3 (Homo sapiens, UniProt P17931); experiment: Isothermal titration calorimetry (ITC) of galectin-3-ligand interaction; assay type: binding; details: for Kd: galectin-3 100 µM, PBS, 25 °C
T2 construct: full-length human galectin-3 (residues 1–250, UniProt code: P17931); His-tag (N, cleaved yes); made in house; host or cells: E. coli BL21(DE3)
Method: ITC experiments were performed at 25 °C using a MicroCal iTC200 microcalorimeter (Malvern Analytical Ltd, Malvern, UK) with 200 µl cell capacity and 40 µl injection syringe volume. […] Ligand-to-buffer and buffer-to-galectin titrations were performed as controls. Ligands were titrated in 19 injections of 2 µl aliquots with 120 s spacing between injections to allow baseline recovery. The ITC titration data were analysed using MicroCal Data Analysis for iTC200 which is an Origin 7.0-based software programme.

galectin-2 [3] = target: T3, galectin-2 (Homo sapiens, UniProt P05162); experiment: TFS of galectin-2-ligand interaction; assay type: binding; details: for blue shift of maximum fluorescence peak: galectin-2; for Kd: galectin-2 20 µM, PBS, 25 °C, mean ± SEM; for maximum ligand binding-induced fluorescence intensity change: galectin-2, buffer titration subtracted
T3 construct: full length human galectin-2 (residues 1–132, UniProt code: P05162); 6xHis-SUMO (N, cleaved yes); made in house; host or cells: E. coli BL21(DE3)
T3 sequence (P05162 1-132): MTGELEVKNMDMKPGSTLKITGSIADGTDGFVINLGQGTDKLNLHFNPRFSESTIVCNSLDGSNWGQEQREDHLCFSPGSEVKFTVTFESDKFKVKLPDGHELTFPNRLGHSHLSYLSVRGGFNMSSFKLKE
Method: as §1

[4] = target: T1, galectin-4C (residues 153–323); experiment: ITC of galectin-4C-ligand interaction; assay type: binding; details: for binding by ITC (in words): galectin-4C 100 µM
Method: (§2) ITC experiments were performed at 25 °C using a MicroCal iTC200 microcalorimeter (Malvern Analytical Ltd, Malvern, UK) with 200 µl cell capacity and 40 µl injection syringe volume. All galectins were used at 100 µM in PBS and the binding ligands were prepared in identical buffers. […] F3 was titrated into galectin-3 at concentration of 20 mM. Ligand-to-buffer and buffer-to-galectin titrations were performed as controls. Ligands were titrated in 19 injections of 2 µl aliquots with 120 s spacing between injections to allow baseline recovery. The ITC titration data were analysed using MicroCal Data Analysis for iTC200 which is an Origin 7.0-based software programme. A curve fit using the ‘One set of sites’ interaction model was used to determine the association constant (KA), stoichiometry of binding (N) and enthalpy change (∆H) for all the interactions of simple sugars with the galectins except F3, where a logistic fit was used due to the nature of F3 as a mixture of heterogeneous polysaccharides.

galectin-4 [5] = target: T4, galectin-4 (Homo sapiens, UniProt P56470); experiment: TFS of galectin-4-ligand interaction; assay type: binding; details: for Kd: full-length galectin-4 5 µM, PBS, 25 °C; for blue shift of maximum fluorescence peak: galectin-4; for maximum ligand binding-induced fluorescence intensity change: galectin-4, control buffer titration deducted
T4 construct: 6xHis-SUMO (N, cleaved yes); made in house; host or cells: E. coli BL21(DE3)
T4 sequence (P56470 1-323): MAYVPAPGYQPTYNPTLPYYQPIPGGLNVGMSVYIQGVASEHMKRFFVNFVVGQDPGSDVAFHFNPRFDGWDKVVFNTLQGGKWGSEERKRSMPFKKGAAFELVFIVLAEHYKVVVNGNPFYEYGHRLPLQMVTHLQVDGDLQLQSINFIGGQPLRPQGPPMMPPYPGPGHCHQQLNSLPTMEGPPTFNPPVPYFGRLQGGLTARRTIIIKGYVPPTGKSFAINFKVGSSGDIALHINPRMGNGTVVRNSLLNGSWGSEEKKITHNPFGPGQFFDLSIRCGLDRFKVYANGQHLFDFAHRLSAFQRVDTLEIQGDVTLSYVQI
Method: as §1

galectin-2 [6] = target: T3, galectin-2; experiment: ITC of galectin-2-ligand interaction; assay type: binding; details: for binding by ITC (in words): 200 mM galactose
Method: as §2

galectin-4 [7] = target: T4, galectin-4; experiment: ITC of galectin-4-ligand interaction; assay type: binding; details: for binding by ITC (in words): galectin-4 100 µM, 200 mM galactose
Method: as §2

[8] = target: T5, galectin-4N (residues 1–152) (Homo sapiens, UniProt P56470); experiment: TFS of galectin-4N-ligand interaction; assay type: binding; details: galectin-4N 5 µM, PBS, 25 °C
T5 construct: N-terminal galectin-4 (galectin-4N, residues 1–152); His-tag (pET47b, HRV3C-cleavable) (cleaved yes); made in house; host or cells: E. coli BL21(DE3)
T5 sequence (P56470 1-152): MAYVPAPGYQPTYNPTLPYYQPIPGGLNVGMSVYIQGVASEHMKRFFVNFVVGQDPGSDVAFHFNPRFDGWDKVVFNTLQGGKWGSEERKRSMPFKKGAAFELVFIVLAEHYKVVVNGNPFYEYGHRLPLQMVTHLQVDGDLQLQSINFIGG
Method: as §1

galectin-4C = system: galectin-4C; design: method as in PMID 15464951, PMID 26077389; details: fluorescence anisotropy, LacNAc vs lactose; cited from earlier work
galectin-3 [9] = target: T2, galectin-3; experiment: Tryptophan fluorescence spectroscopy (TFS) of galectin-3-ligand interaction; assay type: binding; details: for Kd: galectin-3 10 µM, PBS, 25 °C, One site-Specific binding model; for maximum ligand binding-induced change of intrinsic fluorescence intensity: galectin-3, buffer control titration subtracted; for shift of fluorescence emission maximum to lower wavelength (blue shift): galectin-3, ligand titration
Method: as §1, with “circulator.” for “circulator. To measure galectin-ligand interactions, recombinant galectin-2 at 20 µM, galectin-3 at 10 µM and galectin-4, -4N and -4C at 5 µM were allowed to equilibrate in PBS for 10–30 minutes under constant stirring before being titrated with testing carbohydrate ligand solutions.”

[10] = target: T5, galectin-4N (residues 1–152); experiment: ITC of galectin-4N-ligand interaction; assay type: binding; details: galectin-4N 100 µM, 200 mM galactose
Method: as §2

galectin-2 [11] = target: galectin-2; design: method as in PMID 12223272; details: frontal affinity chromatography, read-out: binding affinity; cited from earlier work
galectin-4 [12] = target: galectin-4; design: method as in PMID 15546874; details: SPR, read-out: binding affinity; cited from earlier work

T2 sequence (P17931 whole entry, the tested form may be a part): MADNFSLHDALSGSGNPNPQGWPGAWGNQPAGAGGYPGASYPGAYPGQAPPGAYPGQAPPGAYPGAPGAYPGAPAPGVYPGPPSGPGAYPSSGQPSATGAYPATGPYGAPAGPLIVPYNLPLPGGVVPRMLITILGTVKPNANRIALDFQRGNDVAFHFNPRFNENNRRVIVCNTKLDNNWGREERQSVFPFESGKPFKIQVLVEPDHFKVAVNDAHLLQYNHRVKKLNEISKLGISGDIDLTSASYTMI

## CC(=O)N[C@H]1C(O)O[C@H](CO)[C@@H](O[C@@H]2O[C@H](CO)[C@H](O)[C@H](O)[C@H]2O)[C@@H]1O (stereo partly drawn) [LacNAc, N-Acetyl-D-lactosamine]
[1]
  Kd: 12.1 ± 0.7 mM
galectin-3 [2]; galectin-3
  enthalpy ∆H of binding: -16.5 kcal/mol
galectin-3 [2]; One set of sites model, mean ± SEM, n=3
  Kd: 0.024 ± 0.0036 mM
galectin-3 [2]; galectin-3, LacNAc vs lactose
  difference in enthalpy change to lactose: 4.4 kcal/mol
  fold stronger binding than lactose: ~ 4 fold
galectin-3 [2]; galectin-3, weakest ligand galactose to strongest ligand LacNAc
  difference in binding enthalpy to galactose: 6.1 kcal/mol
galectin-2 [3]
  blue shift of maximum fluorescence peak: 10 nm
  maximum ligand binding-induced fluorescence intensity change: 52 units
galectin-2 [3]; n=3, read-out: KD
  Kd: 0.654 ± 0.155 mM
[4]
  binding by ITC (in words): very too weak and mostly beyond detection
galectin-4 [5]; read-out: KD
  Kd: 9.3 ± 0.8 mM
galectin-4 [5]
  blue shift of maximum fluorescence peak: 5 nm
  maximum ligand binding-induced fluorescence intensity change: 50 units
galectin-2 [6]; ITC, galectin-2 100 µM, PBS, 25 °C, mean ± SEM, n=3, read-out: KD
  Kd: 0.554 ± 0.108 mM
galectin-2 [6]; ITC, galectin-2, LacNAc vs lactose
  fold stronger binding than lactose: ~ 2 fold
galectin-4 [7]; full-length galectin-4 100 µM, PBS, 25 °C, read-out: KD
  Kd: 3.5 ± 0.5 mM
[8]
  Kd: 7.4 ± 0.9 mM
galectin-4C
  fold weaker binding than lactose: at least 11 fold
galectin-3 [9]; mean ± SEM, n=3
  Kd: 0.0279 ± 0.0046 mM
galectin-3 [9]
  maximum ligand binding-induced change of intrinsic fluorescence intensity: 26 units
  shift of fluorescence emission maximum to lower wavelength (blue shift): 9–10 nm

## O=C[C@H](O)[C@@H](O)[C@@H](O)[C@H](O)CO [galactose, D-galactose]
[10]
  binding by ITC (in words): very little, if any, binding taking place; also recorded: very too weak and mostly beyond detection
[1]
  Kd: 33.8 ± 3 mM
galectin-3 [2]; One set of sites model (F3: logistic fit)
  Kd: 3.1 ± 1.1 mM
galectin-2 [3]; KD, n=3
  Kd: 35.6 mM and 30 to 40 mM
galectin-2 [3]
  blue shift of maximum fluorescence peak: 6 nm
  maximum ligand binding-induced fluorescence intensity change: 57 units
[4]
  binding by ITC (in words): very too weak and mostly beyond detection
[4]; galectin-4C, Fig. 7G,I, read-out: KD (class symbol in figure)
  Kd: > 1 mM
galectin-4 [5]; KD
  Kd: 33.6 mM and 30 to 40 mM
galectin-4 [5]
  blue shift of maximum fluorescence peak: 4 nm
  maximum ligand binding-induced fluorescence intensity change: 80 units
galectin-2 [6]
  Kd: > 1 mM
galectin-2 [6]; ITC, galectin-2 100 µM
  binding by ITC (in words): too weak to be determined
galectin-2 [6]; ITC, galectin-2 100 µM, listed as Galactose
  binding by ITC (in words): too weak to be reliably determined
galectin-4 [7]
  binding by ITC (in words): too weak to be determined
galectin-4 [7]; listed as Galactose
  binding by ITC (in words): too weak to be reliably determined
galectin-4 [7]; galectin-4, Fig. 5I, read-out: KD (class symbol in figure)
  Kd: > 1 mM
[8]
  Kd: 43.3 ± 5.2 mM
galectin-3 [9]
  Kd: 4.7 mM and ~5 mM
  maximum ligand binding-induced change of intrinsic fluorescence intensity: 28 units
  shift of fluorescence emission maximum to lower wavelength (blue shift): 9–10 nm

## α-lactose
galectin-2 [11]
  Kd: 1.1 mM
galectin-2 [3]
  blue shift of maximum fluorescence peak: 7 nm
  maximum ligand binding-induced fluorescence intensity change: 59 units
galectin-4 [5]
  blue shift of maximum fluorescence peak: 10 nm
  maximum ligand binding-induced fluorescence intensity change: 49 units
galectin-4 [12]
  Kd: 0.86 mM
galectin-3 [9]
  maximum ligand binding-induced change of intrinsic fluorescence intensity: 21 units
  shift of fluorescence emission maximum to lower wavelength (blue shift): 9–10 nm
